Assays:
[1] = tested on: Salmonella typhimurium and Escherichia coli strains; assay: Ames MPF Penta 2 mutagenicity assay, overall verdict over all strains; assay type: cell-based; conditions: in the absence and presence of metabolic activation
Text: (§1) Growth, exposure and indicator media, liver S9 fraction, S9-NADP, S9-G-6-P, positive control chemicals as well as Salmonella typhimurium and Escherichia coli strains were included in the kit from Xenometrix. According to the obtained results, there were no doses of test compounds 3b and 4g with more than a 2-fold induction over the baseline, and a dose dependent response was not observed both in the absence and presence of metabolic activation (Table S3). Therefore, compounds 3b and 4g were clearly non-mutagenic in the absence and presence of metabolic activation.

[2] = as above; assay type: cell-based, Salmonella typhimurium, Escherichia coli; conditions: Salmonella typhimurium, Escherichia coli; 0.1, 0.2 and 0.5 mM, absence and presence of metabolic activation; read-out: fold induction over the baseline, any dose and strain
Text: as §1

[3] = Ames MPF Penta 2 microplate mutagenicity assay, TA98; assay type: cell-based; conditions: Salmonella typhimurium, read-out: FIB (fold induction over baseline)
Protocol: (§2) The assay is a liquid microplate modification of the traditional Salmonella test. During the procedure, bacteria are exposed to different concentrations of a test compound for 90 min in a medium containing sufficient histidine (S. typhimurium) or tryptophan (E. coli) to support cell divisions. Then, the cultures are diluted in pH indicator medium lacking histidine or tryptophan and aliquoted into 48 wells of a 384-well plate. Within 48 hours, cells that have undergone reversion to amino acid prototrophy will grow into colonies. Bacterial metabolism reduces pH of the medium, changing the color of that well from purple to yellow (https://www.xenometrix.ch).
(§3) The following strains were used in the study: S. typhimurium TA98, TA100, TA1535, TA1537 and E. coli wp2 uvrA[pKM101]. TA100, TA1535 and E. coli strains are used for the detection of base substitution mutations, whereas TA98 and TA1537 are utilized for the detection of frameshift mutations. S. typhimurium strains have GC base pairs, whereas E. coli strain has AT base pair at their primary reversion site and detect certain oxidizing mutagens, cross-linking agents and hydrazines.
(§4) The test procedure provided by Xenometrix (https://www.xenometrix.ch) and described earlier was followed. Briefly, the bacterial strains were grown overnight in exposure medium and exposed to test compounds 4g and 3b in 24-well plates for 90 min at 37 °C with agitation in the absence (–S9) or presence (+S9) of 4.5% phenobarbital/ β-naphthoflavone-induced rat liver S9. Compounds 4g and 3b were dissolved in DMSO and tested at final concentrations of 0.1, 0.2 and 0.5 mM. After the preincubation, the cultures were diluted in the indicator medium and the contents of each 24-well culture were distributed into 48 wells on a 384-well plate and incubated further for 48 h at 37 °C without agitation. After the exposure, the number of wells containing bacteria was scored by eye for yellow wells. Positive and negative controls were included in the assay, and all doses were done in triplicate.
(§5) Pure DMSO was used as the negative control.
(§6) The fold increase of revertants relative to the solvent control was determined by dividing the mean number of positive wells at each dose by the solvent control at baseline. The solvent control at baseline was defined as the mean number of positive wells in the solvent control plus one standard deviation (SD). When an increase of more than 2-fold relative to the baseline at more than one dose with a dose–response is observed the sample is classified as positive, whereas when no response >2 times the baseline and no dose–response is stated the sample is negative.

[4] = In vitro stability in mouse liver microsomes; assay type: in vitro ADME; conditions: for ester hydrolysis in the presence of microsomes: independently of the presence of a NADPH-regenerating system; for Probable Transformation / half-life at 20 µM / microsomal CLint at 20 µM: mouse liver microsomes; for half-life at 20 µM / microsomal CLint at 20 µM: mouse; for half-life at 20 µM: pH 7.4, mouse liver microsomes 0.8 mg/mL, 20 µM compound, NADPH-regenerating system, 37 °C, read-out: t ½; for microsomal CLint at 20 µM: pH 7.4, mouse liver microsomes, calculated from t1/2
How it was run: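 Compound (20 µM) with mouse liver microsomes (0.8 mg/mL), potassium phosphate pH 7.4, NADPH-regenerating system, 37 °C for 15–60 min; parent remaining by UPLC/MS, two repeats. t1/2 from ln % remaining versus time; Clint = (incubation volume/protein) × 0.693/t1/2.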

[5] = Ames MPF Penta 2 microplate mutagenicity assay, TA1537; conditions: Salmonella typhimurium, FIB (fold induction over baseline)
Protocol: as §2, §3, §4, §5, §6

[6] = Ames MPF Penta 2 microplate mutagenicity assay, TA100; assay type: cell-based; conditions: Salmonella typhimurium, read-out: FIB (fold induction over baseline)
Protocol: as §2, §3, §4, §5, §6

[7] = Ames MPF Penta 2 microplate mutagenicity assay, E. coli; assay type: cell-based; conditions: Escherichia coli, read-out: FIB (fold induction over baseline)
Protocol: as §2, §3, §4, §5, §6

[8] = S. typhimurium TA98 without S9 (–S9), TA98, –S9, 0.1 mM
[9] = S. typhimurium TA98 without S9 (–S9), TA98, –S9, 0.2 mM
[10] = S. typhimurium TA98 without S9 (–S9), TA98, –S9, 0.5 mM
[11] = S. typhimurium TA100 without S9 (–S9), TA100, –S9, 0.1 mM
[12] = S. typhimurium TA100 without S9 (–S9), TA100, –S9, 0.2 mM
[13] = S. typhimurium TA100 without S9 (–S9), TA100, –S9, 0.5 mM
[14] = E. coli wp2 uvrA[pKM101] without S9 (–S9), E. coli WP2, –S9, 0.1 mM
[15] = E. coli wp2 uvrA[pKM101] without S9 (–S9), E. coli WP2, –S9, 0.2 mM
[16] = E. coli wp2 uvrA[pKM101] without S9 (–S9), E. coli WP2, –S9, 0.5 mM

| Structure (SMILES) | mutagenicity (verdict in words) [1] | fold induction at 90 min [2] | fold induction at 90 min, 0.1 mM [3, 8] | fold induction at 90 min, 0.2 mM [3, 9] | fold induction at 90 min, 0.5 mM [3, 10] | fold induction at 90 min, 0.1 mM ([3]; TA98, +S9, 0.1 mM) | fold induction at 90 min, 0.2 mM ([3]; TA98, +S9, 0.2 mM) | fold induction at 90 min, 0.5 mM ([3]; TA98, +S9, 0.5 mM) | ester hydrolysis in the presence of microsomes [4] | Probable Transformation [4] | half-life at 20 µM [4] [min] | microsomal CLint at 20 µM [4] [µL/min/mg] | fold induction at 90 min, 0.1 mM ([5]; TA1537, +S9, 0.1 mM) | fold induction at 90 min, 0.2 mM ([5]; TA1537, +S9, 0.2 mM) | fold induction at 90 min, 0.5 mM ([5]; TA1537, +S9, 0.5 mM) | fold induction at 90 min, 0.1 mM ([5]; TA1537, –S9, 0.1 mM) | fold induction at 90 min, 0.2 mM ([5]; TA1537, –S9, 0.2 mM) | fold induction at 90 min, 0.5 mM ([5]; TA1537, –S9, 0.5 mM) | fold induction at 90 min, 0.1 mM [6, 11] | fold induction at 90 min, 0.2 mM [6, 12] | further results |
| --- | --- | --- | --- | --- | --- | --- | --- | --- | --- | --- | --- | --- | --- | --- | --- | --- | --- | --- | --- | --- | --- |
| CCOC(=O)CN1C(=O)/C(=C/c2ccc(OC)cc2)N(CC(=O)OCC)C1=O [Compound 3b, Diethyl 2,2′-((Z)-4-(4-methoxybenzylidene)-2,5-dioxoimidazolidine-1,3-diyl)diacetate] | non-mutagenic | ≤ 2 | 0.9 | 0.2 | 0.9 | 0.2 | 0.4 | 0.3 | hydrolysed to monoesters | hydrolysis O-dealkylation | 12 | 75 | 1.1 | 1.1 | 0.3 | 0.3 | 0.3 | 0.3 | 1.1 | 0.8 | fold induction at 90 min, 0.5 mM [6, 13]: 0.7; fold induction at 90 min, 0.1 mM ([6]; TA100, +S9, 0.1 mM): 0.7; fold induction at 90 min, 0.2 mM ([6]; TA100, +S9, 0.2 mM): 0.6; fold induction at 90 min, 0.5 mM ([6]; TA100, +S9, 0.5 mM): 0.6; fold induction at 90 min, 0.1 mM [7, 14]: 0.3; fold induction at 90 min, 0.2 mM [7, 15]: 0.7; fold induction at 90 min, 0.5 mM [7, 16]: 0.3; fold induction at 90 min, 0.1 mM ([7]; E. coli WP2, +S9, 0.1 mM): 0.7; fold induction at 90 min, 0.2 mM ([7]; E. coli WP2, +S9, 0.2 mM): 0.6; fold induction at 90 min, 0.5 mM ([7]; E. coli WP2, +S9, 0.5 mM): 0.4 |
| CCOC(=O)CN1C(=O)/C(=C/C=C/c2ccc(OC)cc2)N(CC(=O)OCC)C1=O [Compound 4g, Diethyl 2,2′-((Z)-4-((E)-3-(4-methoxyphenyl)allylidene)-2,5-dioxoimidazolidine-1,3-diyl)diacetate] | non-mutagenic | ≤ 2 | 0.5 | 0.9 | 0.2 | 0.3 | 0.4 | 0.6 | hydrolysed to monoesters | hydrolysis O-dealkylation | 3 | > 300 | 1.4 | 1.1 | 0.8 | 0.3 | 1.7 | 0.5 | 1.1 | 0.3 | fold induction at 90 min, 0.5 mM [6, 13]: 0.6; fold induction at 90 min, 0.1 mM ([6]; TA100, +S9, 0.1 mM): 0.7; fold induction at 90 min, 0.2 mM ([6]; TA100, +S9, 0.2 mM): 0.5; fold induction at 90 min, 0.5 mM ([6]; TA100, +S9, 0.5 mM): 0.5; fold induction at 90 min, 0.1 mM [7, 14]: 0.3; fold induction at 90 min, 0.2 mM [7, 15]: 1.3; fold induction at 90 min, 0.5 mM [7, 16]: 1.3; fold induction at 90 min, 0.1 mM ([7]; E. coli WP2, +S9, 0.1 mM): 0.6; fold induction at 90 min, 0.2 mM ([7]; E. coli WP2, +S9, 0.2 mM): 1; fold induction at 90 min, 0.5 mM ([7]; E. coli WP2, +S9, 0.5 mM): 0.7 |
